Details: water at 20° C.; stated in words

For `COCCOC` [ethylene glycol dimethyl ether], the miscibility with water was “completely miscible with water”.

Source: patent US20220325122A1, “Ink Set And Recording Method” (Seiko Epson Corporation, priority 2021, published 2022)
